{"source": "patent US20110288125A1", "about": "“NOVEL USE OF PIPERINE” (Industry-Academic Cooperation Foundation, Yonsei University, priority 2009, published 2011)", "key": {"[1]": {"tested_on": "Swiss albino mice", "conditions": "piperine 100 mg/kg once a day for 4 weeks before benzo[α]pyrene 50 mg/kg twice a week for 16 weeks; cited from earlier work"}, "[2]": {"tested_on": "mouse adipocytes (3T3-L1)", "test": "Adipocyte differentiation inhibition, Oil Red O staining", "assay_type": "cell-based", "conditions": "14 days", "procedure": "The effect of piperine on adipocyte differentiation and growth was investigated using mouse adipocytes (3T3-L1). Preadipocytes 3T3L1 were placed on a 12-well plate and cultured to confluency in a 5% CO2 incubator at 37° C. using DMEM containing 1% penicillin-streptomycin, 1% non-essential amino acids and 10% fetal bovine serum (FBS). The cultured 3T3-L1 cells were differentiated into adipocytes by culturing for 2 days in a medium containing 0.5 mM methylisobutylxanthine/1 μM dexamethasone/1 μg/mL insulin (DMI). The cells were differentiated into mature adipocytes by further culturing for 2 days in DMEM containing 1 μg/mL insulin. Subsequently, they were further cultured for 10 days while changing DMEM every other day to obtain fully differentiated adipocytes. Starting from the day when DMI was added to the 3T3-L1 cells, piperine was treated at concentrations of 0.1, 1, 10, 50 and 100 μM every other day. Piperine was purchased from Sigma and used after being dissolved in DMSO. For negative control, only DMSO was used. After the culturing for a total of 14 days, when the cells were fully differentiated, the medium was removed and the fats contained in the differentiated adipocytes were stained. […] To measure the triglyceride level of the differentiated 3T3-L1 cells, the stained cells were dissolved in 1 mL of isobutanol and OD value was measured at 600 nm."}, "[3]": {"tested_on": "C57BL/6J mice", "test": "Body weight, food efficiency and abdominal fat-pad weights in mice on high-fat diet", "assay_type": "in vivo, mouse", "conditions": "10 weeks", "procedure": "The high-fat diet (HFD, 40% fat calorie, 17 g lard+3% corn oil/100 g diet) was used to induce obesity and piperine-containing diet had the same composition as the HFD except for containing 0.05% piperine. Normal diet (ND) was prepared according to AIN-76 rodent diet (see Table 1). [table] 5-week-old male C57BL/6J mice were accustomed to the laboratory environment for a week while feeding solid feed. […] Diet was provided between 10 and 11 a.m. every day along with water. Diet intake was measured every day, and body weight was measured every 3 days. In order to avoid transient body weight increase due to feed intake, body weight was measured 2 hours after removing the feedbox. […] In addition, food efficiency ratio (FER) was calculated by dividing accumulated body weight gain during test period into total diet uptake from the first day of test diet to sacrifice day. […] Further, regarding accumulation of abdominal fat, after fasting the test animal for at least 12 hours and anesthetizing with diethyl ether, blood, liver and abdominal fat tissues (epididymal, perirenal, mesenteric and retroperitoneal fat) were taken and weighed after washing with 0.1 M PBS (pH 7.4)."}, "[4]": {"conditions": "0.05% piperine in HFD, per unit body weight, FIG. 4"}}, "note": "Entries after “also recorded” stand apart in the source; their conditions may differ.", "data": [{"smiles": "O=C(/C=C/C=C/c1ccc2c(c1)OCO2)N1CCCCC1", "note": "[piperine]", "values": [{"measurement": "antioxidant indicators (SOD, CAT, GPX, GSH, vitamin E, vitamin C) in the tissues", "setting": "[1]", "value": "significantly high values"}, {"measurement": "concentration at which differentiation of preadipocytes 3T3-L1 was decreased in a concentration-dependent manner", "setting": "[2]; piperine 0.1, 1, 10, 50 and 100 μM every other day, vs DMSO, FIG. 1A", "value": "≥ 10", "unit": "µM"}, {"measurement": "amount of intracellular fat (OD value at 600 nm of fats stained with Oil Red O)", "setting": "[2]; piperine 0.1-100 μM, stain dissolved in isobutanol, FIG. 1B", "value": "concentration-dependently reduced the amount of intracellular fat; also recorded: decrease in OD value in a concentration-dependent manner"}, {"measurement": "decrease in body weight gain (accumulated) compared to high-fat diet control group", "setting": "[3]; 0.05% piperine in HFD, FIG. 2", "value": 68, "unit": "%"}, {"measurement": "decrease in final body weight compared to high-fat diet control group", "setting": "[3]; 0.05% piperine in HFD, FIG. 2", "value": 40, "unit": "%"}, {"measurement": "daily food intake compared to high-fat diet control group", "setting": "[3]; 0.05% piperine in HFD, FIG. 3", "value": "reduced; also recorded: significant decrease"}, {"measurement": "reduction of food efficiency ratio (FER) compared to high-fat diet control group", "setting": "[3]; 0.05% piperine in HFD, body weight gain / total diet intake, FIG. 3", "value": 64, "unit": "%"}, {"measurement": "reduction of epididymal fat-pad weight compared to high-fat diet control group", "setting": "[3]; [4]", "value": 63, "unit": "%"}, {"measurement": "reduction of mesenteric fat-pad weight compared to high-fat diet control group", "setting": "[3]; [4]", "value": 68, "unit": "%"}, {"measurement": "reduction of perirenal fat-pad weight compared to high-fat diet control group", "setting": "[3]; [4]", "value": 85, "unit": "%"}, {"measurement": "reduction of retroperitoneal fat-pad weight compared to high-fat diet control group", "setting": "[3]; [4]", "value": 63, "unit": "%"}, {"measurement": "reduction of total abdominal (visceral) fat-pad weights compared to high-fat diet control group", "setting": "[3]; [4]", "value": 66, "unit": "%"}, {"measurement": "feed efficiency compared to control group (HFD), in words", "setting": "[3]; piperine-supplemented diet", "value": "reduced"}]}]}
